Test results as given in US11304892B2, “Alteromonas macleodii Dow02-2 and its metabolites for improving skin moisturization” (TCI Co., Ltd., priority 2018, dated 2022).

Key:
Type in all cases: cell-based
Settings in all cases: HPEK-50 cells, 10 μg/ml, 6 hours, 37° C.
TGM1 gene = assay: qPCR relative expression of TGM1 gene in human epidermal keratinocytes HPEK-50
Procedure: (§1) The human epidermal keratinocytes HPEK-50 were cultured with a keratinocyte-SFM at 37° C. for 24 hours. Thereafter, the cells were divided into eight groups and respectively cultured with the following media at 37° C. for 6 hours: • 1. Control group: keratinocyte-SFM; • 2. “Supernatant” group: keratinocyte-SFM that was additionally added with 62.5 μg/ml of the supernatant obtained from [Preparation Example] B; • 3. “Fraction 1” group: keratinocyte-SFM that was additionally added with 62.5 μg/ml of the Fraction 1 obtained from [Preparation Example] C-1; • 4. “Fraction 2” group: keratinocyte-SFM that was additionally added with 62.5 μg/ml of the Fraction 2 obtained from [Preparation Example] C-1; • 5. […]
(§2) To investigate the effects of metabolites of Alteromonas macleodii Dow02-2 and 2-hydroxy-3-methylbutyric acid on moisturizing skin, inventors of the present invention collected the cells in each group of Example 1-1. […] Thereafter, the cDNA was subjected to a quantitative polymerase chain reaction (qPCR) by using a KAPA CYBR FAST qPCR kit (purchased from KAPA Biosystems) and ABI StepOne Plus™ System to determine the expression levels of moisturizing-related genes such as TGM1 gene, KRT1 gene, KRT10 gene, KRT14 gene, FLG gene, GBA gene and HAS3 gene in the cells of each group. […]

KRT1 gene = assay: qPCR relative expression of KRT1 gene in human epidermal keratinocytes HPEK-50
Procedure: as §1, §2

KRT10 gene = assay: qPCR relative expression of KRT10 gene in human epidermal keratinocytes HPEK-50
Procedure: as §1, §2

KRT14 gene = assay: qPCR relative expression of KRT14 gene in human epidermal keratinocytes HPEK-50
Procedure: as §1, §2

FLG gene = assay: qPCR relative expression of FLG gene in human epidermal keratinocytes HPEK-50
Procedure: as §1, §2

GBA gene = assay: qPCR relative expression of GBA gene in human epidermal keratinocytes HPEK-50
Procedure: as §1, §2

HAS3 gene = assay: qPCR relative expression of HAS3 gene in human epidermal keratinocytes HPEK-50
Procedure: as §1, §2

In the case of `CC(C)C(O)C(=O)O` (stereo not shown) [2-hydroxy-3-methylbutyric acid], the “increase of expression level of TGM1 gene in comparison with the control group” value (TGM1 gene) is reported as 26%, the “increase of expression level of KRT1 gene in comparison with the control group” value (KRT1 gene) is reported as 29% and the “increase of expression level of KRT10 gene in comparison with the control group” value (KRT10 gene) is reported as 158%. For the same molecule, the “increase of expression level of KRT14 gene in comparison with the control group” value (KRT14 gene) was 43%, the “increase of expression level of FLG gene in comparison with the control group” value (FLG gene) was 41% and the “increase of expression level of GBA gene in comparison with the control group” value (GBA gene) was 49%. For the same molecule, the “increase of expression level of HAS3 gene in comparison with the control group” value (HAS3 gene) was 97%.
